28 molecules from ChEMBL document CHEMBL1128738, “Sigma ligands with subnanomolar affinity and preference for the sigma 2 binding site. 1. 3-(omega-aminoalkyl)-1H-indoles” (J Med Chem, 1995) can be followed below.

Test [1] has as its target Sigma non-opioid intracellular receptor 1 (Rattus norvegicus, UniProt Q9R0C9). The test is described as follows: Binding affinity towards sigma receptor binding site 1 using [3H](+)-pentazocine.
Test [2] addresses T1, Adrenergic receptor alpha-1 (Rattus norvegicus, UniProt P15823+P23944+P43140).
T1 sequence (P15823 whole entry): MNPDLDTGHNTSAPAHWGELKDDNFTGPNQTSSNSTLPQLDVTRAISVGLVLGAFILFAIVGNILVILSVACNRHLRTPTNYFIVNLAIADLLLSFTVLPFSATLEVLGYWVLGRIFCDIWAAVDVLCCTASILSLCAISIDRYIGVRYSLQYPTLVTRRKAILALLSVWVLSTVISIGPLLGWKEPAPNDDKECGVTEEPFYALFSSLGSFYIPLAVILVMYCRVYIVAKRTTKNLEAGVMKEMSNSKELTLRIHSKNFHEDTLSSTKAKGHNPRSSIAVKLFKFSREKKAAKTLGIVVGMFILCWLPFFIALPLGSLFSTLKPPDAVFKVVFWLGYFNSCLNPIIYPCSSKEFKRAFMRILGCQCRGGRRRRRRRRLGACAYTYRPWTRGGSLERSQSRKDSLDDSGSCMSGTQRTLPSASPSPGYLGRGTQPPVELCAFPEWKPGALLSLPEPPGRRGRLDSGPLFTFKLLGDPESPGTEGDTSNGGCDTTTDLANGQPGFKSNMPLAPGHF
T1 sequence (P23944 whole entry): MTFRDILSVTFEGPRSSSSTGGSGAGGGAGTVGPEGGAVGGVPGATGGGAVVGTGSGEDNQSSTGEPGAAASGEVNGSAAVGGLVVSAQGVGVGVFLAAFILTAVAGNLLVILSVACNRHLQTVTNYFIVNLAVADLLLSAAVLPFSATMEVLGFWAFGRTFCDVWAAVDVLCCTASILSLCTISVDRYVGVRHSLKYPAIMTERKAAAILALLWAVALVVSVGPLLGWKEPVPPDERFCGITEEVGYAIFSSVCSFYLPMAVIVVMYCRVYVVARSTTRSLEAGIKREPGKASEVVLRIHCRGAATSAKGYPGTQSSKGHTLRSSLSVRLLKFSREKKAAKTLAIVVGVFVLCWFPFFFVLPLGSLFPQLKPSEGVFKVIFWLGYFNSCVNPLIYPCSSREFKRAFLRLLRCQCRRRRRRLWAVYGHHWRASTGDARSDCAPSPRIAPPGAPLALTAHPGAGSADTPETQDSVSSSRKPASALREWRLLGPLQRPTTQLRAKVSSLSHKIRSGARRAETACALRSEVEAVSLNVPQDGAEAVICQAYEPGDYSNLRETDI
T1 sequence (P43140 whole entry): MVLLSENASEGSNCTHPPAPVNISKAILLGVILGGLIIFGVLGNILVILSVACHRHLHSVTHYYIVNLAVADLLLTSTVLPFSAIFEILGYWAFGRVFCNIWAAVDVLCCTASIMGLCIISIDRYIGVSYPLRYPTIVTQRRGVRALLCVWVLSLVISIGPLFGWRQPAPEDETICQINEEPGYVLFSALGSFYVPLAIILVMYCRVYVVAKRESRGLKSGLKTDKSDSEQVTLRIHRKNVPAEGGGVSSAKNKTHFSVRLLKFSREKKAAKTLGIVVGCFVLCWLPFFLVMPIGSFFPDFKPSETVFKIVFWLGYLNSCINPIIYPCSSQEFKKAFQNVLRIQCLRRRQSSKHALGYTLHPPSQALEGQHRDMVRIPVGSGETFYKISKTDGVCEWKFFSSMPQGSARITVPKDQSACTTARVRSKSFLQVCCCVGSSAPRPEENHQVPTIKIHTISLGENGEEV
The test is described as follows: Binding affinity towards Alpha-1 adrenergic receptor binding site using [3H]prazosin. The class given is protein assay.

Test [3] deals with Sigma 2 receptor. The test is described as follows: Binding affinity towards sigma receptor binding site 2 using [3H]DTG of whole rat brain homogenates except cerebellum. The class given is tissue-based.
Test [4] addresses 5-hydroxytryptamine receptor 2A (Rattus norvegicus, UniProt P14842). The test can be described thus: Binding affinity towards 5-hydroxytryptamine 2A receptor binding site using [3H]ketanserin.
The target of test [5] is T2, 5-hydroxytryptamine receptor 1A (Rattus norvegicus, UniProt P19327).
T2 sequence (P19327 whole entry): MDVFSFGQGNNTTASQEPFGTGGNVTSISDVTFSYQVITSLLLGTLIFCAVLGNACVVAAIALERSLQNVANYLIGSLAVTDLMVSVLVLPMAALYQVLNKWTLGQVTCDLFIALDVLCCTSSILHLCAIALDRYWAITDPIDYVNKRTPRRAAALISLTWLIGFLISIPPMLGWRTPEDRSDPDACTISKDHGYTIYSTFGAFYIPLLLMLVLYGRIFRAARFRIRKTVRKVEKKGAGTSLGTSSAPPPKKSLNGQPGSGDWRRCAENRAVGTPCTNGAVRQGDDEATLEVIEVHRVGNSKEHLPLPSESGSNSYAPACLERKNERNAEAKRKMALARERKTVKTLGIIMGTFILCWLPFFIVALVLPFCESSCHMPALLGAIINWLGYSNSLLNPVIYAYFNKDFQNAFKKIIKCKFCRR
The test can be described thus: Binding affinity towards 5-hydroxytryptamine 1A receptor binding site using [3H]8-OH-DPAT.

The target of test [6] is D(2) dopamine receptor (Rattus norvegicus, UniProt P61169). The test can be described thus: Binding affinity towards Dopamine receptor D2 binding site using [3H]spiroperidol.
D(2) dopamine receptor, sequence (P61169 whole entry): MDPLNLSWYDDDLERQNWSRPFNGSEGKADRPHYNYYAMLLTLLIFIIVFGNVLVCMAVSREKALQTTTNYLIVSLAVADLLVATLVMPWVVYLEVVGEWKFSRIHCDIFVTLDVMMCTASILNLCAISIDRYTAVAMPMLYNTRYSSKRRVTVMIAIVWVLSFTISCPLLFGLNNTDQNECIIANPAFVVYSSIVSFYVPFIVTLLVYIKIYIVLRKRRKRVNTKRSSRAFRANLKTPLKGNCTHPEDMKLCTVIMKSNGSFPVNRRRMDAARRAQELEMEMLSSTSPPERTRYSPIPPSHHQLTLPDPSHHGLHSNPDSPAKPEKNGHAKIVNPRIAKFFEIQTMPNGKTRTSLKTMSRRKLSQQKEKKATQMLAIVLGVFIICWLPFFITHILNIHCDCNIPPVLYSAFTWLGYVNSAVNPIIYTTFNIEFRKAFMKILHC
In test [7] the target is Sigma non-opioid intracellular receptor 1 (Rattus norvegicus) (UniProt Q9R0C9). The test can be described thus: Ratio of the binding affinities for sigma-1 and sigma 2 type receptors, ratio of IC50.
Sigma non-opioid intracellular receptor 1 (Rattus norvegicus), sequence (Q9R0C9 whole entry): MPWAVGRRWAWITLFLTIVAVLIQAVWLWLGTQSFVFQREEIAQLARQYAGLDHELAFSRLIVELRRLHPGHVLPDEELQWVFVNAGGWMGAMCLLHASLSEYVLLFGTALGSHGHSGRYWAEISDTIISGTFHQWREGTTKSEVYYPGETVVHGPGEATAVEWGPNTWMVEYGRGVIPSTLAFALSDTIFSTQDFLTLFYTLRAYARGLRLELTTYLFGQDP
For test [8], the target named is T1, Adrenergic receptor alpha-1. The test is described as follows: Binding affinity for Alpha-1 adrenergic receptor with [3H]prazosin. The class given is protein assay.

The structures appear in SMILES notation. Bounds are passed on as bounds.

Sigma non-opioid intracellular receptor 1, sequence (Q9R0C9 whole entry): as above
5-hydroxytryptamine receptor 2A, sequence (P14842 whole entry): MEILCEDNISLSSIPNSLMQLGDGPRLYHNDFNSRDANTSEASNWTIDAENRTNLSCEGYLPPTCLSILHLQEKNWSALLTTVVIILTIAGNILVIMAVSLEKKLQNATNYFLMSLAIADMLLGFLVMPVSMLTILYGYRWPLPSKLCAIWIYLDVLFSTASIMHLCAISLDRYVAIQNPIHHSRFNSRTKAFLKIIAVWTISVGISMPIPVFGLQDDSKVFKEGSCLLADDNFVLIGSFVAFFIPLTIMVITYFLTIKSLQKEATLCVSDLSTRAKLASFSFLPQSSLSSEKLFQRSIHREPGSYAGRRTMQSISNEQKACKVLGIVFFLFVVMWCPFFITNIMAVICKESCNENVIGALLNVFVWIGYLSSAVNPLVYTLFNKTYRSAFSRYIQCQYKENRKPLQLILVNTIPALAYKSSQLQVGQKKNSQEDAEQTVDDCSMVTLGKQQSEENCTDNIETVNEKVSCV

With `Fc1ccc(C2CCN(CCCCc3c[nH]c4ccccc34)CC2)cc1`, the half-maximal inhibitory concentration (IC50) (commonly the concentration needed to halve the response being measured) is 1.4 nM in test [1]; 20 nM in test [2]; 4 nM in test [3]; 34 nM in test [4]; 27 nM in test [5]; 160 nM in test [6].

In the case of `Cc1ccc(S(=O)(=O)n2cc(CCCCN3CCC4(CC3)OCc3ccccc34)c3ccccc32)cc1`, the Ratio in test [7] is 59. For the same molecule, the half-maximal inhibitory concentration (IC50) turned out to be 10 nM in test [1] and 0.17 nM in test [3].

As to `OC(CCCN1CCN(c2ncc(F)cn2)CC1)c1ccc(F)cc1` (stereo not given) [BMY-14802], the concentration for half-maximal inhibition (IC50) in test [2] is 1500 nM; in test [4], 830 nM; in test [6] it was 8400 nM.

With `Fc1ccc(-n2cc(CN3CCC4(CC3)OCc3ccccc34)c3ccccc32)cc1`, in test [7], the Ratio came to 0.64. The half-maximal inhibitory concentration (IC50) in test [1] turned out to be 3 nM; in test [3], 4.7 nM.

For the molecule `Fc1ccc(-n2cc(CCN3CCC4(CC3)OCc3ccccc34)c3ccccc32)cc1`, in test [7], the Ratio stood at 5. Besides, the IC50 in test [1] was found to be 15 nM; in test [3], 3 nM.

In the case of `c1ccc2c(c1)COC21CCN(CCCCc2cn(-c3ccsc3)c3ccccc23)CC1`, the Ratio in test [7] came out at 28. In addition, the concentration for half-maximal inhibition (IC50) in test [1] worked out at 7 nM; in test [3] it was 0.25 nM.

For the molecule `CC(=O)n1cc(CCCCN2CCC3(CC2)OCc2ccccc23)c2ccccc21`, in test [7], the Ratio amounted to 27. In addition, the IC50 in test [1] was 5.7 nM; in test [3], 0.21 nM.

With `COc1ccccc1N1CCN(CCCCc2c[nH]c3ccccc23)CC1`, the IC50 in test [1] turned out to be 14 nM; in test [2], 2.7 nM; in test [3], 21 nM; in test [4] it was 150 nM; in test [6], 15 nM.

Consider `CS(=O)(=O)n1cc(CCCCN2CCC3(CC2)OCc2ccccc23)c2ccccc21`, for which the Ratio in test [7] came to 26. In addition, the IC50 in test [1] worked out at 1.3 nM; in test [3] it was 0.05 nM.

Consider `Fc1ccc(C2=CC3CCC(C2)N3CCCCc2cn(-c3ccc(F)cc3)c3ccccc23)cc1` (stereo not given), for which the IC50 was 1200 nM in test [1]; 350 nM in test [2]; 2.5 nM in test [3]; 3700 nM in test [4]; above 10000 nM in test [5]; 8000 nM in test [6].

For the molecule `O=C(CC1CCN(CC2CC2)CC1)c1ccc(F)cc1`, the results for the concentration for half-maximal inhibition (IC50) in test [2], in test [4] and in test [5] were 21 nM, 66 nM and 44000 nM, respectively.

Take `Fc1ccc(N2CCN(CCCCc3cn(-c4ccc(F)cc4)c4ccccc34)CC2)cc1`: the IC50 in test [1] is 440 nM; in test [2], 420 nM; in test [3], 7.5 nM; in test [4], 250 nM; in test [5] it was above 10000 nM; in test [6], 3000 nM.

For the molecule `c1ccc2c(c1)COC21CCN(CCCCc2c[nH]c3ccccc23)CC1`, the half-inhibitory concentration (IC50) in test [1] was found to be 2.5 nM; in test [2], 30 nM; in test [3], 0.41 nM; in test [4], 360 nM; in test [5], 130 nM; in test [6], 1300 nM.

As to `c1ccc2c(c1)COC21CCN(CCCCc2cn(-c3ccncc3)c3ccccc23)CC1`, in test [7], the Ratio was determined as 34. Besides, the results for the 50% inhibitory concentration (IC50) in test [1] and in test [3] were 14 nM and 0.41 nM, respectively.

In the case of `Fc1ccc(C2=CCN(CCCCc3c[nH]c4ccccc34)CC2)cc1`, the IC50 came out at 7.5 nM in test [1]; 24 nM in test [2]; 2.3 nM in test [3]; 27 nM in test [4]; 71 nM in test [5]; 51 nM in test [6].

`Fc1ccc(N2CCN(CCCCc3c[nH]c4ccccc34)CC2)cc1`: the half-maximal inhibitory concentration (IC50) in test [1] worked out at 5.6 nM; in test [2], 12 nM; in test [3] it was 1.3 nM; in test [4], 14 nM; in test [5], 37 nM; in test [6] it was 180 nM.

Turning to `Fc1ccc(-n2cc(CCCCN3CCC4(CC3)OCc3ccccc34)c3ccccc32)cc1` [SIRAMESINE], the IC50 is 330 nM in test [8], 2000 nM in test [4], 21000 nM in test [5] and 800 nM in test [6].

`c1ccc(C2CCN(CCCCc3c[nH]c4ccccc34)CC2)cc1`: the IC50 in test [1] is 1.5 nM; in test [2] it was 14 nM; in test [3], 0.48 nM; in test [4], 25 nM; in test [5], 110 nM; in test [6], 45 nM.

In the case of `Fc1ccc(-n2cc(CCCN3CCC4(CC3)OCc3ccccc34)c3ccccc32)cc1`, the Ratio in test [7] was 3.6. The IC50 in test [1] came to 10 nM; in test [3], 2.8 nM.

Turning to `c1ccc2c(c1)COC21CCN(CCCCc2cn(-c3nccs3)c3ccccc23)CC1`, the Ratio in test [7] is 74. The half-maximal inhibitory concentration (IC50) in test [1] worked out at 14 nM; in test [3] it was 0.19 nM.

Regarding `COc1ccccc1C1CCN(CCCCc2c[nH]c3ccccc23)CC1`, the IC50 in test [1] stood at 4.5 nM; in test [2], 11 nM; in test [3], 3.3 nM; in test [4], 83 nM; in test [5], 56 nM; in test [6] it was 20 nM.

With `c1ccc(CN2CCC3(CCCc4ccccc43)CC2)cc1`, the half-inhibitory concentration (IC50) was 0.26 nM in test [1]; 1000 nM in test [2]; 12 nM in test [3]; 7100 nM in test [4]; above 100000 nM in test [5].

On to `Fc1ccc(C2CCN(CCCCc3cn(-c4ccc(F)cc4)c4ccccc34)CC2)cc1`, for which the concentration for half-maximal inhibition (IC50) came to 220 nM in test [2]; 0.27 nM in test [3]; 270 nM in test [4]; 22000 nM in test [5]; 4200 nM in test [6].

In the case of `Cn1cc(CCCCN2CCC3(CC2)OCc2ccccc23)c2ccccc21`, in test [7], the Ratio came to 7. Besides, the IC50 was 2.1 nM in test [1] and 0.3 nM in test [3].

In the case of `c1ccc(Cn2cc(CCCCN3CCC4(CC3)OCc3ccccc34)c3ccccc32)cc1`, the Ratio in test [7] is 11. In addition, the IC50 amounted to 5.2 nM in test [1] and 0.48 nM in test [3].

Take `c1csc(-n2cc(CCCCN3CCC4(CC3)OCc3ccccc34)c3ccccc32)c1`: the Ratio in test [7] stood at 32. For the same molecule, the figures for the IC50 in test [1] and in test [3] were 7.7 nM and 0.24 nM, respectively.

In the case of `Fc1ccc(-n2cc(CCCCN3CCN(c4ccccc4)CC3)c3ccccc32)cc1`, the Ratio in test [7] came out at 39. The IC50 in test [1] worked out at 27 nM; in test [3], 0.69 nM.

Turning to `Fc1ccc(-n2cc(CCCCN3CCC(c4ccccc4)CC3)c3ccccc32)cc1`, the Ratio in test [7] was found to be 100. The IC50 in test [1] is 44 nM; in test [3], 0.44 nM.
